# Target: T1, NOS (Papaver somniferum, UniProt I3PLR3)
# T1 construct: His-tag (pRSETA leader) (N); made in house; host or cells: Escherichia coli Rosetta (DE3) pLysS
# T1 sequence (I3PLR3 1-348): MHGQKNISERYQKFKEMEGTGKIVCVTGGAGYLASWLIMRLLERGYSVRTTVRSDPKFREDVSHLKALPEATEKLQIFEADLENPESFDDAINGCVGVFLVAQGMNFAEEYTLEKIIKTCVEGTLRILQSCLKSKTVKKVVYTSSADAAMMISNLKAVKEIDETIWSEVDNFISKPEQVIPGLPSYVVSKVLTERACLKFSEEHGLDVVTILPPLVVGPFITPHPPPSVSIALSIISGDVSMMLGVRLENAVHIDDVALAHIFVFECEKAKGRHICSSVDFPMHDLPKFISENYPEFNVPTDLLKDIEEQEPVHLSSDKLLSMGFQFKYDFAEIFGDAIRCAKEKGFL
# Format: biochemical, opium poppy (Papaver somniferum)
# Conditions: cofactor of NOS for the conversion of narcotine hemiacetal to noscapine
# From the text: The full-length cDNA sequence of CL1327Contig1 (see: Example 2) was cloned into vector pRSETA in-frame with an N-terminal His-tag and expressed in E. coli as follows. The NOS coding region was amplified from opium poppy stem cDNA using the following primer set: 5′-[…]-3′ (SEQ ID NO: 601) and 5′-[…]-3′ (SEQ ID NO: 602). The NOS cDNA was cloned into the expression vector pRSETA (Invitrogen) at the SacI and KpnI restriction sites in frame with an N-terminal His-tag sequence. The expression construct was transformed into Escherichia coli strain Rosetta (DE3) pLysS (EMD Chemicals, Darmstadt, Germany). Expression of the recombinant gene was induced overnight with 1 mM isopropyl β-D-thiogalactoside (IPTG) at room temperature. Cells were harvested by centrifugation and sonicated in a buffer containing 50 mM sodium phosphate, pH 7.0, 300 mM NaCl, and 10 mM β-mercaptoethanol. After centrifugation at 20,000 g for 10 min, the supernatant was loaded onto Talon cobalt affinity resin (Clontech, Mountain View, Calif.). Purification was performed according to the manufacturer's instruction. The purified, recombinant protein was desalted using an Amicon centrifugal filter −30K (Millipore, Billerica, Mass.) and stored in a buffer containing 50 mM Tris-HCl, pH 8.0, 1 mM EDTA, 1 mM β-mercaptoethanol, and 10% (v/v) glycerol. Protein concentration was determined by the Bradford assay (Bio-Rad, Hercules, Calif.) using bovine serum albumin as the standard.
# The purified recombinant NOS enzyme (see: Example 4) was assayed using either narcotine hemiacetal as the substrate (in the presence of either NAD^+ or NADP^+ as cofactor) for dehydrogenase activity, or with noscapine as the substrate (in the presence of NADH or NADPH as the cofactor) for reductase activity. LC-MS/MS was used to identify and quantify product formation (FIG. 7). […] LC-MS/MS and CID spec
# In addition to narcotine hemiacetal and noscapine, NOS was also assayed with several other BIAs that could potentially serve as substrates for dehydrogenase/reductase reactions.
row,Compound,Km [µM]
1,NC(=O)c1ccc[n+]([C@@H]2O[C@H](COP(=O)([O-])OP(=O)(O)OC[C@H]3O[C@@H](n4cnc5c(N)ncnc54)[C@H](OP(=O)(O)O)[C@@H]3O)[C@@H](O)[C@H]2O)c1 [NADP^+],1250
2,NC(=O)c1ccc[n+]([C@@H]2O[C@H](COP(=O)([O-])OP(=O)(O)OC[C@H]3O[C@@H](n4cnc5c(N)ncnc54)[C@H](O)[C@@H]3O)[C@@H](O)[C@H]2O)c1 [NAD^+],33.1

# Same assay, conditions: in the presence of NAD^+ compared with NADP^+ as the cofactor
row,Compound,affinity of NOS for the alkaloid substrate and corresponding catalytic efficiency
1,COc1ccc2c(c1OC)C(O)OC2C1c2c(cc3c(c2OC)OCO3)CCN1C (stereo not drawn) [narcotine hemiacetal],significantly higher

# Same assay, conditions: recombinant NOS, product detection by LC-MS/MS
row,Compound,acceptance as substrate / conversion by NOS
1,COC1=C[C@]23CCN(C)[C@H](Cc4ccc(OC)c(O)c42)C3=CC1=O [salutaridine],none were accepted by NOS
2,c1cc2c(c3c1C[C@H]1c4cc5c(cc4CCN1C3)OCO5)OCO2 [stylopine],none were accepted by NOS
3,COc1ccc2c3c1O[C@H]1[C@@H](O)C=C[C@H]4[C@@H](C2)N(C)CC[C@@]341 [codeine],none were accepted by NOS
4,COc1ccc2c(c1OC)C(O)OC2C1c2c(cc3c(c2OC)OCO3)CCN1C (stereo not drawn) [narcotine hemiacetal],able to oxidize the hydroxyl group on the hemiacetal ring
5,COc1ccc2c3c1O[C@H]1C(=O)C=C[C@H]4[C@@H](C2)N(C)CC[C@]314 [codeinone],none were accepted by NOS
6,COc1ccc2c(c1OC)C(O)O[C@@H]2[C@H]1c2c(cc3c(c2O)OCO3)CCN1C (stereo partly drawn) [narcotoline hemiacetal],yielded a new compound consistent with narcotoline

# — US10793885B2, “Compositions and methods for making noscapine and synthesis intermediates thereof” (priority 2013, dated 2020)
